The NIST ThermoML archive (doi:10.1016/j.jct.2016.10.031)

Conditions: for molar entropy: 101.33 kPa, Small (less than 1 g) adiabatic calorimetry

CC(C)(C)c1ccc(Oc2ccc([N+](=O)[O-])cc2)cc1 [1-(tert-butyl)-4-(4-nitrophenoxy)benzene]
Conditions | Glass transition temperature [°C] | Triple point temperature [K] | molar entropy [J/K/mol]
5 K, Crystal | – | – | 0.4639
10 K, Crystal | – | – | 3.11
15 K, Crystal | – | – | 7.882
20 K, Crystal | – | – | 14.05
25 K, Crystal | – | – | 21.04
30 K, Crystal | – | – | 28.52
35 K, Crystal | – | – | 36.25
40 K, Crystal | – | – | 44.07
45 K, Crystal | – | – | 51.97
50 K, Crystal | – | – | 59.86
60 K, Crystal | – | – | 75.08
70 K, Crystal | – | – | 89.8
80 K, Crystal | – | – | 104.1
90 K, Crystal | – | – | 117.98
100 K, Crystal | – | – | 131.7
110 K, Crystal | – | – | 145.09
120 K, Crystal | – | – | 158.31
130 K, Crystal | – | – | 171.36
140 K, Crystal | – | – | 184.17
150 K, Crystal | – | – | 196.89
160 K, Crystal | – | – | 209.52
170 K, Crystal | – | – | 222
180 K, Crystal | – | – | 234.38
190 K, Crystal | – | – | 246.69
200 K, Crystal | – | – | 259
210 K, Crystal | – | – | 271.13
220 K, Crystal | – | – | 283.27
230 K, Crystal | – | – | 295.33
240 K, Crystal | – | – | 307.47
250 K, Crystal | – | – | 319.44
260 K, Crystal | – | – | 331.5
270 K, Crystal | – | – | 343.55
280 K, Crystal | – | – | 355.53
290 K, Crystal | – | – | 367.58
298.15 K, Crystal | – | – | 377.39
300 K, Crystal | – | – | 379.64
310 K, Crystal | – | – | 391.78
320 K, Crystal | – | – | 403.92
330 K, Crystal | – | – | 416.14
334.8 K, Crystal | – | – | 422.04
334.8 K, Liquid | – | – | 482.07
340 K, Liquid | – | – | 488.97
350 K, Liquid | – | – | 502.03
360 K, Liquid | – | – | 514.91
370 K, Liquid | – | – | 527.55
Crystal, Adiabatic calorimetry | – | 334.8 | –
Glass, Adiabatic calorimetry | -39.3 | – | –
